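Briefly, cells in 96-well plates were exposed to five compound concentrations for 48 h, and endpoints were estimated by linear interpolation. The concentration for 50% growth inhibition is given as GI50. TGI denotes the concentration required for complete inhibition of growth.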
Tests used:
Experiment in all cases: NCI-60 cell line screen, 48 h
786-0 renal = test system: 786-0 renal
A498 renal = test system: A498 renal
A549 NSCLC = test system: A549 NSCLC
ACHN renal = test system: ACHN renal
BT-549 breast = test system: BT-549 breast
CAKI-1 renal = test system: CAKI-1 renal
CCRF-CEM leukemia = test system: CCRF-CEM leukemia
COLO 205 colon = test system: COLO 205 colon
DU-145 prostate = test system: DU-145 prostate
EKVX NSCLC = test system: EKVX NSCLC
HCT-116 colon = test system: HCT-116 colon
HCT-15 colon = test system: HCT-15 colon
HL-60(TB) leukemia = test system: HL-60(TB) leukemia
HOP-62 NSCLC = test system: HOP-62 NSCLC
HOP-92 NSCLC = test system: HOP-92 NSCLC
HS 578T breast = test system: HS 578T breast
HT29 colon = test system: HT29 colon
K-562 leukemia = test system: K-562 leukemia
KM12 colon = test system: KM12 colon
LOX IMVI melanoma = test system: LOX IMVI melanoma
M14 melanoma = test system: M14 melanoma
MALME-3M melanoma = test system: MALME-3M melanoma
MCF7 breast = test system: MCF7 breast
MDA-MB-435 = test system: MDA-MB-435
NCI-H226 lung = test system: NCI-H226 lung
NCI-H23 lung = test system: NCI-H23 lung
NCI-H460 lung = test system: NCI-H460 lung
NCI/ADR-RES ovarian = test system: NCI/ADR-RES ovarian
OVCAR-3 ovarian = test system: OVCAR-3 ovarian
OVCAR-8 ovarian = test system: OVCAR-8 ovarian
PC-3 prostate = test system: PC-3 prostate
RPMI-8226 leukemia = test system: RPMI-8226 leukemia
RXF 393 renal = test system: RXF 393 renal
SF-268 CNS = test system: SF-268 CNS
SF-295 CNS = test system: SF-295 CNS
SF-539 CNS = test system: SF-539 CNS
SK-MEL-2 melanoma = test system: SK-MEL-2 melanoma
SK-MEL-28 melanoma = test system: SK-MEL-28 melanoma
SK-MEL-5 melanoma = test system: SK-MEL-5 melanoma
SK-OV-3 ovarian = test system: SK-OV-3 ovarian
SNB-19 CNS = test system: SNB-19 CNS
SNB-75 CNS = test system: SNB-75 CNS
SR leukemia = test system: SR leukemia
SW-620 colon = test system: SW-620 colon
T-47D breast = test system: T-47D breast
TK-10 renal = test system: TK-10 renal
U251 CNS = test system: U251 CNS
UACC-257 melanoma = test system: UACC-257 melanoma
UACC-62 melanoma = test system: UACC-62 melanoma
UO-31 renal = test system: UO-31 renal
HCC-2998 colon = test system: HCC-2998 colon
IGROV1 ovarian = test system: IGROV1 ovarian
MOLT-4 leukemia = test system: MOLT-4 leukemia
NCI-H522 lung = test system: NCI-H522 lung

Compound CC[N+](CC)=c1cc2oc3cc(N(C)C)ccc3nc-2cc1C has a GI50 (786-0 renal) of 5.12 µM, a TGI (786-0 renal) greater than 100 µM and a GI50 (A498 renal) of 1.54 µM. The TGI (A498 renal) was 30.8 µM, the GI50 (A549 NSCLC) was 1.71 µM and the TGI (A549 NSCLC) was 16 µM. For the same compound, the GI50 (ACHN renal) was 10.8 µM, the TGI (ACHN renal) was greater than 100 µM and the GI50 (BT-549 breast) was 0.932 µM. The TGI (BT-549 breast) was 13.6 µM, the GI50 (CAKI-1 renal) was 3.07 µM and the TGI (CAKI-1 renal) was 19.6 µM. It also gave a GI50 (CCRF-CEM leukemia) of 2.3 µM, a TGI (CCRF-CEM leukemia) of 65.4 µM and a GI50 (COLO 205 colon) of 0.66 µM. It also gave a TGI (COLO 205 colon) of 2.27 µM, a GI50 (DU-145 prostate) of 4.36 µM and a TGI (DU-145 prostate) of 33.4 µM. For the same compound, the GI50 (EKVX NSCLC) was 1.53 µM, the TGI (EKVX NSCLC) was 17.3 µM and the GI50 (HCT-116 colon) was 0.563 µM. For the same compound, the TGI (HCT-116 colon) was 4.85 µM, the GI50 (HCT-15 colon) was 2.75 µM and the TGI (HCT-15 colon) was greater than 100 µM. It also gave a GI50 (HL-60(TB) leukemia) of 0.313 µM, a TGI (HL-60(TB) leukemia) of 2.83 µM and a GI50 (HOP-62 NSCLC) of 1.98 µM. It also gave a TGI (HOP-62 NSCLC) of 37.1 µM, a GI50 (HOP-92 NSCLC) of 1.15 µM and a TGI (HOP-92 NSCLC) of 8.19 µM. The GI50 (HS 578T breast) was 10.5 µM, the TGI (HS 578T breast) was 64.2 µM and the GI50 (HT29 colon) was 3.47 µM. It also gave a TGI (HT29 colon) greater than 100 µM, a GI50 (K-562 leukemia) of 1.78 µM and a TGI (K-562 leukemia) greater than 100 µM. It also gave a GI50 (KM12 colon) of 0.975 µM, a TGI (KM12 colon) of 14.7 µM and a GI50 (LOX IMVI melanoma) of 1.71 µM. For the same compound, the TGI (LOX IMVI melanoma) was 12.3 µM, the GI50 (M14 melanoma) was 0.471 µM and the TGI (M14 melanoma) was 2.65 µM. The GI50 (MALME-3M melanoma) was 1.53 µM, the TGI (MALME-3M melanoma) was 5.33 µM and the GI50 (MCF7 breast) was 0.352 µM. The TGI (MCF7 breast) was 2.48 µM, the GI50 (MDA-MB-435) was 2.15 µM and the TGI (MDA-MB-435) was 17.7 µM. For the same compound, the GI50 (NCI-H226 lung) was 6.76 µM, the TGI (NCI-H226 lung) was 47.2 µM and the GI50 (NCI-H23 lung) was 0.482 µM. It also gave a TGI (NCI-H23 lung) of 6.79 µM, a GI50 (NCI-H460 lung) of 1.86 µM and a TGI (NCI-H460 lung) of 73.6 µM. It also gave a GI50 (NCI/ADR-RES ovarian) of 4.23 µM, a TGI (NCI/ADR-RES ovarian) greater than 100 µM and a GI50 (OVCAR-3 ovarian) of 0.296 µM. It also gave a TGI (OVCAR-3 ovarian) of 1.02 µM, a GI50 (OVCAR-8 ovarian) of 2.11 µM and a TGI (OVCAR-8 ovarian) of 9.93 µM. For the same compound, the GI50 (PC-3 prostate) was 0.454 µM, the TGI (PC-3 prostate) was greater than 100 µM and the GI50 (RPMI-8226 leukemia) was 0.628 µM. For the same compound, the TGI (RPMI-8226 leukemia) was 10.1 µM, the GI50 (RXF 393 renal) was 15.2 µM and the TGI (RXF 393 renal) was 90.1 µM. It also gave a GI50 (SF-268 CNS) of 1.18 µM, a TGI (SF-268 CNS) of 3.48 µM and a GI50 (SF-295 CNS) of 1.93 µM. For the same compound, the TGI (SF-295 CNS) was 16.8 µM, the GI50 (SF-539 CNS) was 0.39 µM and the TGI (SF-539 CNS) was 13.1 µM. It also gave a GI50 (SK-MEL-2 melanoma) of 0.519 µM, a TGI (SK-MEL-2 melanoma) of 4.82 µM and a GI50 (SK-MEL-28 melanoma) of 8.4 µM. For the same compound, the TGI (SK-MEL-28 melanoma) was 42.1 µM, the GI50 (SK-MEL-5 melanoma) was 1.04 µM and the TGI (SK-MEL-5 melanoma) was 5.69 µM. It also gave a GI50 (SK-OV-3 ovarian) of 4.45 µM, a TGI (SK-OV-3 ovarian) of 98.7 µM and a GI50 (SNB-19 CNS) of 2.9 µM. It also gave a TGI (SNB-19 CNS) greater than 100 µM, a GI50 (SNB-75 CNS) of 2.59 µM and a TGI (SNB-75 CNS) of 11.1 µM. The GI50 (SR leukemia) was 2.74 µM, the TGI (SR leukemia) was 75 µM and the GI50 (SW-620 colon) was 0.791 µM. The TGI (SW-620 colon) was 23 µM, the GI50 (T-47D breast) was 0.563 µM and the TGI (T-47D breast) was greater than 100 µM. The GI50 (TK-10 renal) was 1.94 µM, the TGI (TK-10 renal) was 8.38 µM and the GI50 (U251 CNS) was 0.538 µM. The TGI (U251 CNS) was 6.06 µM, the GI50 (UACC-257 melanoma) was 0.306 µM and the TGI (UACC-257 melanoma) was 1.56 µM. The GI50 (UACC-62 melanoma) was 3.24 µM, the TGI (UACC-62 melanoma) was 31.1 µM and the GI50 (UO-31 renal) was 3.76 µM. The TGI (UO-31 renal) was 41.9 µM.
COc1cc(/C=C/C(=O)c2ccc(Nc3nc(NCCO)nc(N4CCOCC4)n3)cc2)cc(OC)c1OC gave a GI50 (A498 renal) of 1.32 µM, a TGI (A498 renal) of 5.01 µM and a GI50 (A549 NSCLC) of 2.18 µM. For the same compound, the TGI (A549 NSCLC) was greater than 100 µM, the GI50 (ACHN renal) was 1.95 µM and the TGI (ACHN renal) was 5.61 µM. The GI50 (BT-549 breast) was 1.35 µM, the TGI (BT-549 breast) was 2.86 µM and the GI50 (CAKI-1 renal) was 2.09 µM. For the same compound, the TGI (CAKI-1 renal) was 11 µM, the GI50 (CCRF-CEM leukemia) was 0.935 µM and the TGI (CCRF-CEM leukemia) was 3.54 µM. It also gave a GI50 (EKVX NSCLC) of 2.83 µM, a TGI (EKVX NSCLC) greater than 100 µM and a GI50 (HCC-2998 colon) of 1.8 µM. It also gave a TGI (HCC-2998 colon) of 3.3 µM, a GI50 (HCT-116 colon) of 1.3 µM and a TGI (HCT-116 colon) of 3 µM. The GI50 (HCT-15 colon) was 1.43 µM, the TGI (HCT-15 colon) was 4.4 µM and the GI50 (HL-60(TB) leukemia) was 1.79 µM. For the same compound, the TGI (HL-60(TB) leukemia) was 4.78 µM, the GI50 (HOP-62 NSCLC) was 2.72 µM and the TGI (HOP-62 NSCLC) was 7.75 µM. The GI50 (HOP-92 NSCLC) was 1.61 µM, the TGI (HOP-92 NSCLC) was 7.4 µM and the GI50 (HS 578T breast) was 1.65 µM. It also gave a TGI (HS 578T breast) of 5.46 µM, a GI50 (IGROV1 ovarian) of 1.9 µM and a TGI (IGROV1 ovarian) of 4.59 µM. For the same compound, the GI50 (K-562 leukemia) was 0.783 µM, the TGI (K-562 leukemia) was 7.56 µM and the GI50 (MCF7 breast) was 1.17 µM. The TGI (MCF7 breast) was 2.77 µM, the GI50 (MOLT-4 leukemia) was 1.19 µM and the TGI (MOLT-4 leukemia) was 4.37 µM. The GI50 (NCI-H226 lung) was 2.15 µM, the TGI (NCI-H226 lung) was 5.18 µM and the GI50 (NCI-H23 lung) was 2.03 µM. It also gave a TGI (NCI-H23 lung) of 5.17 µM, a GI50 (NCI-H460 lung) of 1.58 µM and a TGI (NCI-H460 lung) of 3.47 µM. It also gave a GI50 (NCI-H522 lung) of 1.59 µM, a TGI (NCI-H522 lung) of 4.11 µM and a GI50 (OVCAR-3 ovarian) of 1.69 µM. The TGI (OVCAR-3 ovarian) was 4.26 µM, the GI50 (OVCAR-8 ovarian) was 2.2 µM and the TGI (OVCAR-8 ovarian) was greater than 100 µM. It also gave a GI50 (PC-3 prostate) of 2.14 µM, a TGI (PC-3 prostate) of 7.18 µM and a GI50 (RXF 393 renal) of 1.46 µM. For the same compound, the TGI (RXF 393 renal) was 3.23 µM, the GI50 (SF-268 CNS) was 1.88 µM and the TGI (SF-268 CNS) was 5.54 µM. It also gave a GI50 (SF-295 CNS) of 3.03 µM, a TGI (SF-295 CNS) greater than 100 µM and a GI50 (SF-539 CNS) of 1.63 µM. For the same compound, the TGI (SF-539 CNS) was 3.16 µM, the GI50 (SK-MEL-2 melanoma) was 1.71 µM and the TGI (SK-MEL-2 melanoma) was 3.73 µM. The GI50 (SK-MEL-5 melanoma) was 1.76 µM, the TGI (SK-MEL-5 melanoma) was 3.28 µM and the GI50 (SK-OV-3 ovarian) was 3.05 µM. For the same compound, the TGI (SK-OV-3 ovarian) was 27.5 µM, the GI50 (SR leukemia) was 0.422 µM and the TGI (SR leukemia) was 3.22 µM. It also gave a GI50 (T-47D breast) of 1.8 µM, a TGI (T-47D breast) of 6.68 µM and a GI50 (U251 CNS) of 1.38 µM. The TGI (U251 CNS) was 2.97 µM, the GI50 (UACC-62 melanoma) was 1.54 µM and the TGI (UACC-62 melanoma) was 3.2 µM.
